The conditions of data set [1]: human.
The nature of data set [2]: Highest frequency of acute liver toxicity observed during clinical trials, expressed as a percentage. [column '% AIGUE' in source]. Particulars: human.
For data set [3] the following is noted: human. This is another data set of the same source.
For data set [4] the following is noted: human. The source holds these as a separate data set.
The conditions of data set [5]: human. This is another data set of the same source.
For data set [6] the following is noted: human, serum, 4383 h.
A short description of data set [7]: Highest frequency of moderate liver toxicity observed during clinical trials, expressed as a percentage. [column '% BIOL' in source]. To be noted: human.
For data set [8] the following is noted: human. This is another data set of the same source.
For data set [9] the following is noted: human, serum.
The conditions of data set [10]: human, serum. This is another data set of the same source.
For data set [11] the following is noted: human. The source holds these as a separate data set.
The conditions of data set [12]: human. This is another data set of the same source.
For data set [13] the following is noted: human. This is another data set of the same source.
The conditions of data set [14]: human. This is another data set of the same source.
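Throughout, for Hepatotoxicity (association with vascular disease): count of indexed literature references reporting vascular liver injury in humans, e.g. peliosis hepatitis, hepatic veno-occlusive disease or Budd-Chiari syndrome.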
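Throughout, for Hepatotoxicity (benign tumour): value is a count of indexed literature references citing a benign tumour confirmed by histopathology.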
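Throughout, for Hepatotoxicity (choleostasis): human cholestatic liver injury, shown by histopathology or by peak ALT or AST elevation over alkaline phosphatase ratio below 2, value counts indexed literature reports.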
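Throughout, for Hepatotoxicity (chronic liver disease): chronic liver injury confirmed by histopathology or persistently raised serum aminotransferase activity beyond 6 months, value given as the count of indexed literature references.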
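Throughout, for Hepatotoxicity (cirrhosis): value is a count of indexed literature references reporting cirrhosis confirmed by histopathology.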
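Throughout, for Hepatotoxicity (cytolytic): human cytolytic liver injury, shown by histopathology or by a ratio above 5 of peak ALT or AST elevation to alkaline phosphatase elevation, value counts indexed references.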
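Throughout, for Hepatotoxicity (granulomatous hepatitis): value is a count of indexed literature references reporting granulomatous liver disease confirmed by histopathology.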
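Throughout, for Hepatotoxicity (malignant tumour): malignant tumour confirmed by histopathology, value gives the count of indexed literature references reporting it.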
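Throughout, for Hepatotoxicity (severe hepatitis): human clinical data: severe hepatitis, meaning potentially life-threatening liver failure or clinically observed cases, the value counts how many indexed literature references report it.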
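Throughout, for Hepatotoxicity (steatosis): steatosis confirmed by histopathology, value is the count of indexed references.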

Turning to `O=C1Cc2cc(CCN3CCN(c4nsc5ccccc45)CC3)c(Cl)cc2N1` [ZIPRASIDONE], in data set [1], the “Hepatotoxicity (cirrhosis)” value amounted to 0. In addition, the “Hepatotoxicity (acute)” value in data set [2] stood at 0%; in data set [10], 0. Further, in data set [3], the “Hepatotoxicity (steatosis)” value is listed as 0. Also, in data set [4], the “Hepatotoxicity (severe hepatitis)” value is 0. Also, the “Hepatotoxicity (benign tumour)” value in data set [5] is given as 0. In addition, in data set [6], the “Hepatotoxicity (chronic liver disease)” value was found to be 0. Moreover, the “Hepatotoxicity (moderate)” value in [7] was 1.2%; in [9] it was 1. Besides, the “Hepatotoxicity (association with vascular disease)” value in [8] is reported as 0. In addition, the “Hepatotoxicity (choleostasis)” value in data set [11] worked out at 0. For the same molecule, the “Hepatotoxicity (malignant tumour)” value in data set [12] came out at 0. In data set [13], the “Hepatotoxicity (cytolytic)” value is 0. In addition, the “Hepatotoxicity (granulomatous hepatitis)” value in data set [14] amounted to 0.
For `CO/N=C(\C(=O)N[C@@H]1C(=O)N2C(C(=O)OCOC(=O)C(C)(C)C)=C(Cn3nnc(C)n3)CS[C@H]12)c1csc(N)n1`, in [1], the “Hepatotoxicity (cirrhosis)” value came to 0. Besides, the “Hepatotoxicity (acute)” value in data set [2] is reported as 0%; in [10], 0. Also, the “Hepatotoxicity (steatosis)” value in [3] stood at 0. The “Hepatotoxicity (severe hepatitis)” value in [4] is recorded as 0. Also, in [5], the “Hepatotoxicity (benign tumour)” value is 0. The “Hepatotoxicity (chronic liver disease)” value in data set [6] is given as 0. Also, the “Hepatotoxicity (moderate)” value in [7] turned out to be 3.3%; in [9], 9. For the same molecule, the “Hepatotoxicity (association with vascular disease)” value in data set [8] was 0. For the same molecule, in data set [11], the “Hepatotoxicity (choleostasis)” value was found to be 0. The “Hepatotoxicity (malignant tumour)” value in [12] is reported as 0. Besides, in data set [13], the “Hepatotoxicity (cytolytic)” value worked out at 0. Moreover, the “Hepatotoxicity (granulomatous hepatitis)” value in [14] is listed as 0.
On to `CCN1CCN(C(=O)N[C@@H](C(=O)N[C@@H]2C(=O)N3[C@@H]2SC(C)(C)[C@@H]3C(=O)O)c2ccccc2)C(=O)C1=O.C[C@]1(Cn2ccnn2)[C@H](C(=O)O)N2C(=O)C[C@H]2S1(=O)=O`, for which the “Hepatotoxicity (cirrhosis)” value in data set [1] is 0. In addition, the “Hepatotoxicity (acute)” value was determined as 0% in [2] and 0 in data set [10]. In data set [3], the “Hepatotoxicity (steatosis)” value worked out at 0. For the same molecule, the “Hepatotoxicity (severe hepatitis)” value in [4] was found to be 0. The “Hepatotoxicity (benign tumour)” value in data set [5] was 0. Further, the “Hepatotoxicity (chronic liver disease)” value in data set [6] came to 0. Further, the “Hepatotoxicity (moderate)” value came to 33.3% in data set [7] and 46 in [9]. Moreover, the “Hepatotoxicity (association with vascular disease)” value in data set [8] is recorded as 0. Moreover, in data set [11], the “Hepatotoxicity (choleostasis)” value is reported as 0. In addition, the “Hepatotoxicity (malignant tumour)” value in data set [12] worked out at 0. Besides, the “Hepatotoxicity (cytolytic)” value in data set [13] was determined as 0. For the same molecule, in [14], the “Hepatotoxicity (granulomatous hepatitis)” value is given as 0.
Consider `CCOC(=O)[C@H](CCc1ccccc1)N[C@@H](C)C(=O)N(CC(=O)O)C1Cc2ccccc2C1`, for which the “Hepatotoxicity (cirrhosis)” value in [1] turned out to be 0. Moreover, the entries for the “Hepatotoxicity (acute)” value in [2] and in data set [10] were 0% and 0, respectively. The “Hepatotoxicity (steatosis)” value in data set [3] was 0. In [4], the “Hepatotoxicity (severe hepatitis)” value was 0. For the same molecule, the “Hepatotoxicity (benign tumour)” value in data set [5] is recorded as 0. Besides, in data set [6], the “Hepatotoxicity (chronic liver disease)” value worked out at 0. Also, the “Hepatotoxicity (moderate)” value in [7] turned out to be 1.1%; in data set [9] it was 1. For the same molecule, the “Hepatotoxicity (association with vascular disease)” value in data set [8] is listed as 0. Moreover, the “Hepatotoxicity (choleostasis)” value in [11] worked out at 0. In data set [12], the “Hepatotoxicity (malignant tumour)” value was found to be 0. The “Hepatotoxicity (cytolytic)” value in [13] is 0. Further, in [14], the “Hepatotoxicity (granulomatous hepatitis)” value is given as 0.
As to `Cc1nc(NS(=O)(=O)c2ccc(N)cc2)oc1C` [SULFAMOXOLE], in data set [1], the “Hepatotoxicity (cirrhosis)” value amounted to 0. The “Hepatotoxicity (acute)” value in data set [2] amounted to 0%; in [10] it was 1. Moreover, the “Hepatotoxicity (steatosis)” value in data set [3] stood at 0. Further, the “Hepatotoxicity (severe hepatitis)” value in [4] is 0. In data set [5], the “Hepatotoxicity (benign tumour)” value worked out at 0. The “Hepatotoxicity (chronic liver disease)” value in data set [6] was 0. The “Hepatotoxicity (moderate)” value in data set [7] was determined as 0%; in data set [9], 0. For the same molecule, in data set [8], the “Hepatotoxicity (association with vascular disease)” value came to 0. In addition, the “Hepatotoxicity (choleostasis)” value in [11] was 0. Also, the “Hepatotoxicity (malignant tumour)” value in data set [12] is given as 0. Further, the “Hepatotoxicity (cytolytic)” value in data set [13] came to 0. In [14], the “Hepatotoxicity (granulomatous hepatitis)” value was determined as 0.
Consider `C[Si](C)(C)c1cccc(C(=O)C(F)(F)F)c1`, for which, in [1], the “Hepatotoxicity (cirrhosis)” value is 0. Also, the “Hepatotoxicity (acute)” value in data set [2] is 0%; in data set [10], 0. Further, the “Hepatotoxicity (steatosis)” value in data set [3] worked out at 0. Further, the “Hepatotoxicity (severe hepatitis)” value in data set [4] amounted to 0. The “Hepatotoxicity (benign tumour)” value in data set [5] is reported as 0. Besides, the “Hepatotoxicity (chronic liver disease)” value in [6] came out at 0. The results for the “Hepatotoxicity (moderate)” value in data set [7] and in [9] were 0% and 2, respectively. For the same molecule, the “Hepatotoxicity (association with vascular disease)” value in data set [8] was 0. In addition, the “Hepatotoxicity (choleostasis)” value in data set [11] came to 0. Moreover, the “Hepatotoxicity (malignant tumour)” value in [12] is listed as 0. Also, the “Hepatotoxicity (cytolytic)” value in data set [13] worked out at 0. Moreover, in [14], the “Hepatotoxicity (granulomatous hepatitis)” value was 0.
Turning to `CC(C)CCOc1ccc(NC(=S)Nc2ccc(OCCC(C)C)cc2)cc1` [TIOCARLIDE], in data set [1], the “Hepatotoxicity (cirrhosis)” value is on record as 0. Moreover, the results for the “Hepatotoxicity (acute)” value in data set [2] and in data set [10] were 0.4% and 2, respectively. The “Hepatotoxicity (steatosis)” value in data set [3] amounted to 0. For the same molecule, in [4], the “Hepatotoxicity (severe hepatitis)” value is 0. Moreover, in data set [5], the “Hepatotoxicity (benign tumour)” value is recorded as 0. Besides, the “Hepatotoxicity (chronic liver disease)” value in data set [6] was determined as 0. The “Hepatotoxicity (moderate)” value came to 4.5% in data set [7] and 1 in [9]. Also, in data set [8], the “Hepatotoxicity (association with vascular disease)” value was 0. The “Hepatotoxicity (choleostasis)” value in data set [11] stood at 0. For the same molecule, the “Hepatotoxicity (malignant tumour)” value in [12] is 0. Further, in [13], the “Hepatotoxicity (cytolytic)” value was found to be 2. Further, the “Hepatotoxicity (granulomatous hepatitis)” value in data set [14] came to 0.
Regarding `CCn1cc(C(=O)O)c(=O)c2cnc(N3CCNCC3)nc21` [PIPEMIDIC ACID], the “Hepatotoxicity (cirrhosis)” value in data set [1] is listed as 0. The results for the “Hepatotoxicity (acute)” value in data set [2] and in data set [10] were 0% and 0, respectively. Moreover, the “Hepatotoxicity (steatosis)” value in data set [3] is reported as 0. The “Hepatotoxicity (severe hepatitis)” value in data set [4] is reported as 0. For the same molecule, the “Hepatotoxicity (benign tumour)” value in [5] was determined as 0. In addition, the “Hepatotoxicity (chronic liver disease)” value in data set [6] is listed as 0. For the same molecule, the figures for the “Hepatotoxicity (moderate)” value in [7] and in data set [9] were 0% and 1, respectively. Besides, in data set [8], the “Hepatotoxicity (association with vascular disease)” value is reported as 0. In addition, the “Hepatotoxicity (choleostasis)” value in [11] came out at 0. In data set [12], the “Hepatotoxicity (malignant tumour)” value worked out at 0. The “Hepatotoxicity (cytolytic)” value in data set [13] worked out at 0. Also, the “Hepatotoxicity (granulomatous hepatitis)” value in [14] is given as 0.
In the case of `N[C@@H](CSCC(=O)O)C(=O)O` [CARBOCYSTEINE], the “Hepatotoxicity (cirrhosis)” value in [1] came out at 0. For the same molecule, the “Hepatotoxicity (acute)” value in data set [2] stood at 0%; in data set [10] it was 0. The “Hepatotoxicity (steatosis)” value in data set [3] is 0. The “Hepatotoxicity (severe hepatitis)” value in data set [4] was determined as 0. Also, the “Hepatotoxicity (benign tumour)” value in [5] worked out at 0. Moreover, in data set [6], the “Hepatotoxicity (chronic liver disease)” value turned out to be 0. In addition, the “Hepatotoxicity (moderate)” value is 0.8% in data set [7] and 1 in [9]. Further, the “Hepatotoxicity (association with vascular disease)” value in data set [8] came out at 0. Moreover, the “Hepatotoxicity (choleostasis)” value in data set [11] is 0. Further, the “Hepatotoxicity (malignant tumour)” value in [12] was found to be 0. Moreover, the “Hepatotoxicity (cytolytic)” value in data set [13] turned out to be 0. Further, in data set [14], the “Hepatotoxicity (granulomatous hepatitis)” value was 0.
Consider `O=C(O)Cn1c(=O)n(Cc2ccc(Br)cc2F)c(=O)c2ccc(Cl)cc21` [ZENARESTAT], for which the “Hepatotoxicity (cirrhosis)” value in data set [1] worked out at 0. Besides, the “Hepatotoxicity (acute)” value amounted to 0% in data set [2] and 0 in data set [10]. The “Hepatotoxicity (steatosis)” value in data set [3] was determined as 0. In data set [4], the “Hepatotoxicity (severe hepatitis)” value stood at 0. The “Hepatotoxicity (benign tumour)” value in data set [5] stood at 0. In addition, the “Hepatotoxicity (chronic liver disease)” value in [6] is recorded as 0. Further, the entries for the “Hepatotoxicity (moderate)” value in [7] and in data set [9] were 9.5% and 1, respectively. Further, the “Hepatotoxicity (association with vascular disease)” value in data set [8] is 0. Besides, the “Hepatotoxicity (choleostasis)” value in [11] was determined as 0. For the same molecule, the “Hepatotoxicity (malignant tumour)” value in data set [12] was 0. In addition, the “Hepatotoxicity (cytolytic)” value in data set [13] stood at 0. The “Hepatotoxicity (granulomatous hepatitis)” value in [14] is 0.
Take `CCCCC(C)(C)[C@H](O)/C=C/[C@H]1[C@H](C)CC(=O)[C@@H]1C/C=C\CCCC(=O)O` [TRIMOPROSTIL]: the “Hepatotoxicity (cirrhosis)” value in data set [1] is 0. Further, the “Hepatotoxicity (acute)” value was determined as 0% in data set [2] and 0 in [10]. The “Hepatotoxicity (steatosis)” value in [3] worked out at 0. For the same molecule, the “Hepatotoxicity (severe hepatitis)” value in data set [4] was determined as 0. Besides, in [5], the “Hepatotoxicity (benign tumour)” value is 0. Moreover, the “Hepatotoxicity (chronic liver disease)” value in [6] is given as 0. The figures for the “Hepatotoxicity (moderate)” value in data set [7] and in data set [9] were 0% and 1, respectively. Further, in data set [8], the “Hepatotoxicity (association with vascular disease)” value is 0. Also, in data set [11], the “Hepatotoxicity (choleostasis)” value is given as 0. In [12], the “Hepatotoxicity (malignant tumour)” value was 0. The “Hepatotoxicity (cytolytic)” value in data set [13] worked out at 0. Moreover, the “Hepatotoxicity (granulomatous hepatitis)” value in [14] was determined as 0.
As for `CCCCC(C)(O)C/C=C/[C@H]1[C@H](O)CC(=O)[C@@H]1CCCCCCCO` (stereo partly drawn) [RIOPROSTIL], the “Hepatotoxicity (cirrhosis)” value in data set [1] came to 0. For the same molecule, the figures for the “Hepatotoxicity (acute)” value in data set [2] and in data set [10] were 0% and 0, respectively. The “Hepatotoxicity (steatosis)” value in data set [3] is given as 0. Besides, in [4], the “Hepatotoxicity (severe hepatitis)” value was found to be 0. The “Hepatotoxicity (benign tumour)” value in data set [5] is recorded as 0. Also, the “Hepatotoxicity (chronic liver disease)” value in data set [6] is recorded as 0. Moreover, the “Hepatotoxicity (moderate)” value in data set [7] turned out to be 10%; in data set [9] it was 1. For the same molecule, the “Hepatotoxicity (association with vascular disease)” value in data set [8] is recorded as 0. For the same molecule, the “Hepatotoxicity (choleostasis)” value in [11] is given as 0. In addition, the “Hepatotoxicity (malignant tumour)” value in data set [12] came to 0. Moreover, the “Hepatotoxicity (cytolytic)” value in data set [13] is reported as 0. In [14], the “Hepatotoxicity (granulomatous hepatitis)” value turned out to be 0.
